Columns and labels:
Type in all cases: in vivo, mouse
[1] = system: Berkeley mice; experiment: MRI perfusion (FAIR-Quipps) cerebral blood flow in Berkeley mice
Experimental: (§1) Experimental Design & Methods: Dose Efficacy Experiment: A single oral dose (gavage) of pyridoxamine (400 mg/kg) was administered to BERK mice (n=6) or C57bl WT mice (n=4) and CBF and deoxyHb levels measured (see below for Measurement Parameters) before treatment and 2 h, 24 h, 72 h, 5 days and 9 days after treatment. Measurement Parameters: Each animal was assessed for several parameters by magnetic resonance imaging (MRI) methods on a 9.4 T Agilent MRI system. The primary MRI methods included brain and muscle perfusion, water diffusivity and oxygenation. Data acquisition was by multi-shot (8) Echo Planer Imaging (msEPI) (segmented and interleaved). Perfusion data were acquired using amultislice FAIR-Quipps approach, and blood oxygenation was determined from T2w msEPI (BOLD). Inflammation was inferred from the mean diffusivity of water calculated from a Diffusion Tensor Imaging (DTI) measurement which estimates the apparent diffusion coefficient of water (ADC). Transverse relaxation (T2) will be assessed for tissue free-water content using 30 echos (TE: 1.3 ms-240 ms) using multiecho-spin echo approaches. Longitudinal relaxation (T1) is assessed using EPI-inversion recovery (T1: 0.1 s-7 s, TR 8 s). Tissue Oxygenation: Bold Oxygen Level Dependent (BOLD) measurements were made during a hyperoxia challenge. MRI begins while animals are exposed to 20% O2/80% N2 (6 min) and imaging continues while the inspired gas is switched to 100% O2, maintained for 6 minutes, then returned to normal room air levels. BOLD image signal intensity (echo-planer T2* weighted imaging) is inversely sensitive to deoxyHb levels, such that an increase in deoxyHb/oxyHb ratio causes a decrease in BOLD signal, while a decrease in this ratio causes an increase in BOLD signal intensity. Perfusion measurements: Quantitative perfusion measurements (FAIR-Quipps) employ a volume coil for arterial labeling, and surface coil for signal measurement, and a TI of 1200 ms. Water diffusion coefficient: DTI data were collected using a 7 direction assessment, from which both the mean diffusivity (DTI-MD) and fractional anisotropy (DTI-FA) were obtained. DTI-FA provides a measure of white matter integrity and DTI-MD, along with tissue T2 provides a measure of tissue inflammation.
Data Analysis & Interpretation: All images are co-registered to a template using FSL tools (FMRIB Software library, Oxford, UK). The template was constructed of an averaged high-resolution averaged T2-weighted image from 3 co-registered BERK mice, or 3 co-registered C57bl mice. Regions of interest (ROI's) were drawn from standard atlases (Paxonis) on the template, and include white matter (CC and External Caudate), gray matter (Somatosensory, Motor, Frontal, Parietal) Cortex, hippocampus, basal ganglia, cingulate, and others) and cranial muscle from the anterior region of the head. Image data was converted from native format to NIFTI format, intensity flattened, phase corrected, orientation corrected, and registered to the template. Perfusion, BOLD activation ratios and metabolite ratios were calculated using MATLAB (Mathworks, Natick, Mass.). Parameter maps were calculated using a non-linear least squares in Matlab, or using the FMRIB FSL-based Diffusion Toolbox (DTIFIT). Registration was accomplished using the FSL-FLIRT routine. […]

[2] = system: NY1DD mice; experiment: Hypoxia/reoxygenation in NY1DD mice, intravital microscopy of cremaster venules
Experimental: NY1DD mice (2×n=6) were exposed to hypoxia for 16 h (gas mixture=10% O2, 0.5% CO2 and balance N2). One group of NY1 DD was then be given an intraperitoneal (i.p.) dose of pyridoxamine (400 mg/kg), dissolved in phosphate buffered saline (PBS), prior to 3 h reoxygenation in ambient conditions. The second group of NY1 DD mice was put through the same hypoxia/reoxygenation process and given vehicle (PBS) as a negative control. Healthy C57 BL/6J mice were used as healthy controls and were not exposed to hypoxia/reoxygenation stress. At the end of the reoxygenation period, the cremaster muscle was excised for intravital microscopy analysis. Intravital microscopy: Mice were anesthetized i.p. with 10% urethane and 2% α-chloralose in saline (6 ml/kg). The animals were tracheotomized and the left carotid artery cannulated to monitor systemic arterial pressure. The open cremaster muscle was prepared according to the method of Baez. The surface of the open cremaster muscle was suffused with a bicarbonate Ringer's solution of the following millimolar composition: NaCl 135.0, KCl 5.0, NaHCO3 27.0, MgCl2 0.64 and glucose 11.6. pH was adjusted to 7.35-7.4 by continuous bubbling with […]. The osmolarity of the solution, as measured by a Microosmette (Precision Systems, Inc., Sudsbury, MA) was 320 mOsm which is similar to that reported for the mouse plasma. The cremaster muscle preparation was allowed to stabilize for 30 min before the initiation of the experiment. The temperature of the suffusion solution (flow rate, 5-6 ml/min) bathing the cremaster was maintained at 34.5-35° C. and monitored by a telethermometer (YSI Inc., Yellowsprings, Ohio) during the entire experiment. Oxygen tension of the suffusion solution bathing the tissue was determined using a microoxygen electrode (model MI-730; Microelectrodes Inc., Bedford, N.H.). Microscopic observations were carried out using microscope (model BH-2; Olympus Corp., Lake Success, N.Y.) equipped with a television camera (5000 Series; Cohu, Inc., San Diego, Calif.) and a Sony U-matic video recorder (model V05800; Sony Corp., Teaneck, N.J.). Identification of venules and arterioles for observation was determined according to the published procedure. Vessel luminal diameter was measured on-line by image shearing using an image shearing device (model 907; Instruments for Physiology and Medicine, San Diego, Calif.). Red cell velocity (Vrbc) was measured along the vessel centerline using the dual-slit photodiode technique of Wayland and Johnson […]. The dual-slit photo detector was placed over the projected image of the vessel and on-line analysis of the optical signals was performed using a cross-correlator as described by Tompkins et al. (Model 102 BF; instruments for Physiology and Medicine). Vrbc measurements were made using a water immersion ×40 objective and ×6.3 eyepiece. The wall shear rates were calculated from the mean Vrbc (Vmean) and vessel diameter. The centerline Vrbc was converted to the mean red cell velocity across the vessel diameter using a conversion factor of 1.6 (Vrbc/Vmean=1.6) originally described by Baker and Wayland. Shear rates along the wall of microvessel of a given internal diameter (D) were calculated using the relationship: Wall shear rate=8 Vmean/D. Estimates of volumetric flow rates (Q) were made from Vmean and the vessel cross-sectional area (π D^2/4). Rolling leukocytes were defined as those leukocytes that distinctly roll along the endothelial surface. The rolling leukocytes were easily distinguished because of their lower velocity compared with that of leukocytes and red cells in the flow. Rolling leukocyte velocity (μm/s) represented the time required for a rolling leukocyte to traverse a given length of venule. An average of rolling velocities of approximately ten leukocytes per venule was determined by frame-by-frame analysis of video replay. […]

[3] = system: Berkeley mice; experiment: BOLD MRI during hyperoxia challenge (tissue oxygenation, deoxyHb/oxyHb ratio) in Berkeley mice; settings: single oral dose 400 mg/kg, gavage
Experimental: as §1, with “BOLD image signal intensity (echo-planer T2* weighted imaging) is inversely sensitive to deoxyHb levels, such that an increase in deoxyHb/oxyHb ratio causes a decrease in BOLD signal, while a decrease in this ratio causes an increase in BOLD signal intensity.” left out, “Water diffusion coefficient: DTI data were collected using a 7 direction assessment, from which both the mean diffusivity (DTI-MD) and fractional anisotropy (DTI-FA) were obtained. DTI-FA provides a measure of white matter integrity and DTI-MD, along with tissue T2 provides a measure of tissue inflammation.” left out
Data Analysis & Interpretation: All images are co-registered to a template using FSL tools (FMRIB Software library, Oxford, UK). […] Perfusion, BOLD activation ratios and metabolite ratios were calculated using MATLAB (Mathworks, Natick, Mass.). Parameter maps were calculated using a non-linear least squares in Matlab, or using the FMRIB FSL-based Diffusion Toolbox (DTIFIT). […]

[4] = system: Berkeley mice; experiment: Hypoxia/reoxygenation in Berkeley mice, intravital microscopy; settings: single i.p. dose; Berkeley mice exposed to hypoxic stress
[5] = single i.p. dose 400 mg/kg, 16 h hypoxia, 3 h reoxygenation, cremaster venules

## Cc1ncc(CO)c(CN)c1O [pyridoxamine]
[1]; single oral dose 400 mg/kg, gavage
  time of maximum effect on cerebral blood flow (CBF): 72 h
[1]; single oral dose 400 mg/kg, gavage, versus C57 wild type
  effect on cerebral blood flow (CBF): normalized the CBF to near wild type
[1]; single oral dose 100-400 mg/kg
  time of maximum response of brain perfusion: 72 h
[1]; single oral dose 100-400 mg/kg, versus wild type C57BL mice
  effect on perfusion in the brain: normalized perfusion in the brain of Berkeley mice to wild type values
[1]; transgenic mouse models of SCD, single dose
  duration of sustained effects of treatment: up to 9 days
[2]; single i.p. dose 400 mg/kg, 16 h hypoxia, 3 h reoxygenation, 400 mg/kg
  change in venule diameter: minimal change
[2]; [5]
  decrease in leukocyte adhesion: 84%
  decrease in leukocyte emigration: 95%
  decrease in rolling leukocytes: 24%
  increase in red blood cell flow velocity (Vrbc): 42%
  increase in wall shear rate: 92%
[2]; single i.p. dose, NY1DD mice exposed to hypoxic stress
  hypoxia/reoxygenation induced endothelial activation: ameliorated
[3]; 72 h after treatment
  deoxygenated hemoglobin/oxygenated hemoglobin ratio in brain after treatment: significant decrease
[3]; brain
  time of maximum effect on brain deoxyHb/oxyHb ratio (BOLD): 72 h
[3]; cranial muscle
  time of maximal effect on cranial muscle BOLD signal (oxyhemoglobin increase): 72 h
[4]
  hypoxia/reoxygenation induced endothelial activation: ameliorated

From patent US20170056381A1, “PYRIDOXAMINE FOR THE TREATMENT OF SICKLE CELL DISEASE, THALASSEMIA AND RELATED BLOOD DISEASES” (NANOMETICS LLC, priority 2014, published 2017)
